Consider seven molecules from PMC3216237 (Environmental science & technology, 2011).

The subject of one data set is rat liver microsomes. The class given is in vitro ADME. The settings on record: for Enantiomeric fraction (EF) of OH-PCB metabolite: column not specified, microsomal incubation 50 μM PCB, 30 min.
The subject of the next data set is Ryanodine receptor (RyR). To be noted: enantiospecific, only this atropisomer active; cited from earlier work.
The conditions of data set [1]: liver of rats treated with Aroclor 1254; cited from earlier work.

As to `Oc1cc(Cl)c(Cl)c(-c2ccc(Cl)cc2Cl)c1Cl` [5–91], the “Enantiomeric fraction (EF) of OH-PCB metabolite” value in the data set with rat liver microsomes came to 0.54.

Consider `Oc1cc(Cl)c(Cl)c(-c2cc(Cl)ccc2Cl)c1Cl` [5–95], for which the “Enantiomeric fraction (EF) of OH-PCB metabolite” value in the data set with rat liver microsomes is “approximately 0.33”.

With `Oc1cc(Cl)c(Cl)c(-c2cc(Cl)c(Cl)cc2Cl)c1Cl` [5–149], the “Enantiomeric fraction (EF) of OH-PCB metabolite” value in the data set on rat liver microsomes stood at 0.65.

In the case of `Oc1cc(Cl)c(Cl)c(-c2ccc(Cl)c(Cl)c2Cl)c1Cl` [5′-132], the “Enantiomeric fraction, CB column” value in the data set on rat liver microsomes (Cyclosil-B column, analysis conducted at 170 °C, metabolite analysed as MeO-PCB) is listed as 0.31 ^a, ^#. Also, the “Enantiomeric fraction (EF) of OH-PCB metabolite” value in the data set on rat liver microsomes came to 0.31.

In the case of `Clc1ccc(Cl)c(-c2c(Cl)ccc(Cl)c2Cl)c1Cl` [(-)-PCB 136, 2,2′,3,3′,6,6′-hexachlorobiphenyl], in the data set on Ryanodine receptor (RyR), the “Sensitization of RyRs” value is listed as “active”.

Take `Clc1ccc(Cl)c(-c2c(Cl)ccc(Cl)c2Cl)c1` [PCB 95]: the “Enantiomeric fraction (EF) in liver” value in data set [1] is listed as 0.63.

`Clc1cc(Cl)c(-c2c(Cl)ccc(Cl)c2Cl)cc1Cl` [PCB 149]: the “Enantiomeric fraction (EF) in liver” value in data set [1] was 0.45.
